Experiment [1] deals with T1, Cbl-b (Homo sapiens, UniProt Q13191). Nature of the experiment: Cbl-b inhibition assay (Cbl-b activity assay, FRET, Biological Example 1; 100 mM NaCl, 60 nM Src kinase). Format: biochemical. The following applies: upper bound stated in text lists; read-out: IC50 values in the Cbl-b inhibition assay of Biological Example 1. In outline:
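Steps: Src kinase phosphorylates N-terminal biotinylated Avi-tagged Cbl-b; phosphorylated Cbl-b binds Bodipy-fluorescein ubiquitin-loaded UbcH5B; streptavidin-terbium on Cbl-b sits close to the fluorescein label, producing FRET. Inhibitors block UbcH5B-Ub binding.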

Experiment [2] concerns the target T1, Cbl-b. Kind of experiment: Cbl-b activity assay (Cbl-b inhibition assay), TR-FRET of Cbl-b interaction with UbcH5B-Ub. Format: biochemical. As to conditions: assay buffer with 100 mM NaCl, 60 nM Src kinase; read-out: Cbl-b activity IC50. In outline:
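UbcH5B (C85K) conjugated to N-terminally Bodipy-Fluorescein-labeled ubiquitin served as the fluorescent partner. After compound preincubation, Src kinase (60 nM) with 1 mM ATP and 5 mM MgCl2 (final) was added for 1.5 h, followed by a further 1 h incubation. Some values were obtained with 50 mM NaCl and 30 nM Src.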
(In TR-FRET formats the signal depends on donor and acceptor labels being close together.)

For the next experiment, the target named is Cbl-b (residues 36-427) (Homo sapiens, UniProt Q13191). Kind of experiment: Cbl-b binding assay (SPR, Biacore T200). As to conditions: 20° C., 1:1 binding model. In outline:
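Steps: capture protein on NeutrAvidin surface; inject compound dilutions (8 or 10 points from 100 or 50 μM) 50 s; allow 90-180 s dissociation; regenerate 20 s with 0.3 M NaCl. Runs at 20° C in HEPES pH 7.5/100 mM NaCl/2% DMSO; 1:1 fitting.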

The term pIC50 denotes the IC50 on a negative log10 scale, so that one unit is a factor of ten. Broadly, the pKd is the Kd on a negative log10 scale, so that one unit is a factor of ten. A high value points to a low Kd.

pIC50, pKd: −log10 of the molar value. A value given as a limit tells only on which side of the number the result lay.

T1 sequence (Q13191 36-427): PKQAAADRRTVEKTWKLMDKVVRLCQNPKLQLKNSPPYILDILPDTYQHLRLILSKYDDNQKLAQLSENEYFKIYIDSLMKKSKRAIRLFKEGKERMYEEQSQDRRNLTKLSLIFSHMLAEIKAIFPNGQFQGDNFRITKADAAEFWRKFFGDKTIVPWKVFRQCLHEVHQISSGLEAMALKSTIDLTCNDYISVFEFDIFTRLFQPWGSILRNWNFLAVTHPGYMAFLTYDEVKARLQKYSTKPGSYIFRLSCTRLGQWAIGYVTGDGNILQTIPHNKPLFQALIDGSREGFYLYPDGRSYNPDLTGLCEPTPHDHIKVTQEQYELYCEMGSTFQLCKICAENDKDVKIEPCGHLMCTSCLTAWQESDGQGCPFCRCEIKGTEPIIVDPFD
Sequence of Cbl-b (residues 36-427) (Q13191 36-427): as above

For `CNc1cc(C(C)Sc2nncn2C)cc(N2Cc3c(cccc3C(F)(F)F)C2=O)n1` (stereo not drawn) [Compound 180, 2-[6-(methylamino)-4-[1-[(4-methyl-1,2,4-triazol-3-yl)sulfanyl]ethyl]-2-pyridyl]-4-(trifluoromethyl)isoindolin-1-one], the negative-log IC50 (pIC50) on Cbl-b [1] is ≥ 5.00; on Cbl-b [2], 5.52 to 6.00. The negative-log Kd (pKd) at Cbl-b (residues 36-427) is 5.52 to 6.00.
Turning to `Cn1cnnc1SC(CCO)c1cccc(NC(=O)c2cccc(C(F)(F)F)n2)c1` (stereo not drawn) [Compound 181, N-(3-(3-hydroxy-1-((4-methyl-4H-1,2,4-triazol-3-yl)thio)propyl)phenyl)-6-(trifluoromethyl)picolinamide], the results for the pIC50 on Cbl-b [1] and at Cbl-b [2] were ≥ 5.00 and 5.52 to 6.00, respectively. Further, on Cbl-b (residues 36-427), the negative-log Kd (pKd) was 5.00 to 5.52.
Taken in the same sequence, the figures for `C[C@H](Cc1nncn1C)c1cccc(NC(=O)c2cc3ccccc3cn2)c1` [Compound 182, (R)-N-(3-(1-(4-methyl-4H-1,2,4-triazol-3-yl)propan-2-yl)phenyl)isoquinoline-3-carboxamide] were ≥ 6.30, 6.00 to 6.52 and 6.00 to 6.52.
Taken in the same sequence, the figures for `C[C@@H](Cc1nncn1C)c1cccc(NC(=O)c2cccc(C(F)(F)F)n2)c1` [Compound 183b, (S)-N-(3-(1-(4-methyl-4H-1,2,4-triazol-3-yl)propan-2-yl)phenyl)-6-(trifluoromethyl)picolinamide] were ≥ 5.00, 6.52 to 7.00 and 5.00 to 5.52.
Taken in the same sequence, the figures for `C[C@H](Cc1nncn1C)c1cccc(NC(=O)c2cc(C(F)(F)F)ccn2)c1` [Compound 184, (R)-N-(3-(1-(4-methyl-4H-1,2,4-triazol-3-yl)propan-2-yl)phenyl)-4-(trifluoromethyl)picolinamide] were ≥ 5.00, 5.52 to 6.00 and 5.00 to 5.52.
On to `C[C@@H](Cc1nncn1C)c1cccc(NC(=O)c2cc(S(C)(=O)=O)cc(C3CC3)n2)c1` [Compound 198b], for which the pIC50 on Cbl-b [1] was ≥ 5.00; at Cbl-b [2], 5.00 to 5.52. Also, the pKd on Cbl-b (residues 36-427) was 5.00 to 5.52.
For the compound `C[C@H](Cc1nncn1C)c1cccc(NC(=O)c2cc(N[C@@H]3CC[C@H](O)C3)ccn2)c1` [Compound 204, 4-((1R,3S)-3-hydroxycyclopentylamino)-N-(3-((R)-1-(4-methyl-4H-1,2,4-triazol-3-yl)propan-2-yl)phenyl)picolinamide], the results for the negative-log IC50 (pIC50) on Cbl-b [1] and at Cbl-b [2] were ≥ 5.00 and 5.52 to 6.00, respectively. Moreover, on Cbl-b (residues 36-427), the pKd is 5.52 to 6.00.
Consider `C[C@H](Cc1nncn1C)c1cccc(NC(=O)c2cc(O[C@@H]3CC[C@H](O)C3)ccn2)c1` [Compound 207, 4-((1R,3S)-3-hydroxycyclopentyloxy)-N-(3-((R)-1-(4-methyl-4H-1,2,4-triazol-3-yl)propan-2-yl)phenyl)picolinamide], for which the values for the pIC50 at Cbl-b [1] and at Cbl-b [2] were ≥ 6.00 and 6.00 to 6.52, respectively. The compound also had a pKd on Cbl-b (residues 36-427) of 5.52 to 6.00.
In the same order, the values of `C[C@H](Cc1nncn1C)c1cccc(NC(=O)c2cc(N[C@H]3CC[C@@H](O)C3)ccn2)c1` [Compound 208, cis-4-(3-hydroxycyclopentylamino)-N-(3-((R)-1-(4-methyl-4H-1,2,4-triazol-3-yl)propan-2-yl)phenyl)picolinamide] are ≥ 6.00, 6.00 to 6.52 and 5.00 to 5.52.
Taken in the same sequence, the figures for `C[C@@H](Cc1nncn1C)c1cccc(NC(=O)c2cc3cc(N4CCN(C)C(=O)C4)ccc3cn2)c1` [Compound 210, (S)-6-(4-methyl-3-oxopiperazin-1-yl)-N-(3-(1-(4-methyl-4H-1,2,4-triazol-3-yl)propan-2-yl)phenyl)isoquinoline-3-carboxamide 2,2,2-trifluoroacetate] were ≥ 5.00, 5.00 to 5.52 and 5.00 to 5.52.
In the same order, the values of `C[C@H](Cc1nncn1C)c1cccc(NC(=O)c2cc(C(=O)N3C[C@@H](O)C[C@@H]3C)ccn2)c1` [Compound 223, 4-((2S,4S)-4-hydroxy-2-methylpyrrolidine-1-carbonyl)-N-(3-((R)-1-(4-methyl-4H-1,2,4-triazol-3-yl)propan-2-yl)phenyl)picolinamide] are ≥ 5.00, 5.00 to 5.52 and 5.00 to 5.52.
As to `C[C@H](Cc1nncn1C)c1cccc(NC(=O)c2cc(C(=O)N3CC(S(C)(=O)=O)C3)ccn2)c1` [Compound 225, 4-(3-methanesulfonylazetidine-1-carbonyl)-N-[3-[(2R)-1-(4-methyl-4H-1,2,4-triazol-3-yl)propan-2-yl]phenyl]pyridine-2-carboxamide], the pIC50 at Cbl-b [1] is ≥ 5.00; at Cbl-b [2] it was 5.52 to 6.00. Moreover, at Cbl-b (residues 36-427), the pKd was 5.00 to 5.52.
Taken in the same sequence, the figures for `C[C@H](Cc1nncn1C)c1cccc(NC(=O)c2cc(C(=O)NCC(C)(C)O)ccn2)c1` [Compound 226, (R)-N^4-(2-hydroxy-2-methylpropyl)-N^2-(3-(1-(4-methyl-4H-1,2,4-triazol-3-yl)propan-2-yl)phenyl)pyridine-2,4-dicarboxamide] were ≥ 5.00, 5.00 to 5.52 and 5.00 to 5.52.
In the same order, the values of `C[C@H](Cc1nncn1C)c1cccc(NC(=O)c2cc(C(=O)N3CCC(C)(O)CC3)ccn2)c1` [Compound 227, (R)-4-(4-hydroxy-4-methylpiperidine-1-carbonyl)-N-(3-(1-(4-methyl-4H-1,2,4-triazol-3-yl)propan-2-yl)phenyl)picolinamide] are ≥ 5.00, 5.52 to 6.00 and 5.00 to 5.52.
In the same order, the values of `C[C@H](Cc1nncn1C)c1cccc(NC(=O)c2cc(C(=O)N3CC[C@](C)(N)C3)ccn2)c1` [Compound 229, 4-((S)-3-amino-3-methylpyrrolidine-1-carbonyl)-N-(3-((R)-1-(4-methyl-4H-1,2,4-triazol-3-yl)propan-2-yl)phenyl)picolinamide] are ≥ 5.00, 5.52 to 6.00 and 5.52 to 6.00.
On to `C[C@H](Cc1nncn1C)c1cccc(NC(=O)c2cc(C(=O)N3CCC(O)C3(C)C)ccn2)c1` (stereo partly drawn) [Compound 231, 4-(3-hydroxy-2,2-dimethylpyrrolidine-1-carbonyl)-N-(3-((R)-1-(4-methyl-4H-1,2,4-triazol-3-yl)propan-2-yl)phenyl)picolinamide], for which the pIC50 is ≥ 5.00 on Cbl-b [1] and 5.52 to 6.00 on Cbl-b [2]. Further, the pKd on Cbl-b (residues 36-427) is 6.52 to 7.00.
In the same order, the values of `C[C@H](Cc1nncn1C)c1cccc(NC(=O)c2cc(C(=O)N3CCC4(COC4)C3)ccn2)c1` [Compound 233, N-[3-[(2R)-1-(4-methyl-4H-1,2,4-triazol-3-yl)propan-2-yl]phenyl]-4-[2-oxa-6-azaspiro[3.4]octane-6-carbonyl]pyridine-2-carboxamide] are ≥ 5.00, 5.00 to 5.52 and 5.00 to 5.52.
In the same order, the values of `C[C@H](Cc1nncn1C)c1cccc(NC(=O)c2cc(C(=O)N3C[C@@H]4[C@@H](O)[C@@H]4C3)ccn2)c1` [Compound 234, 4-[(1R,5S,6R)-6-hydroxy-3-azabicyclo[3.1.0]hexane-3-carbonyl]-N-[3-[(2R)-1-(4-methyl-4H-1,2,4-triazol-3-yl)propan-2-yl]phenyl]pyridine-2-carboxamide] are ≥ 5.00, 5.52 to 6.00 and 5.52 to 6.00.

The record behind these values is patent US20220324835A1 (Nurix Therapeutics, Inc., priority 2018, published 2022).
